The target of assay [1] is T1, hP2X7R (Homo sapiens, UniProt Q99572).
T1 construct: 3xFLAG (3flag); expressed in transfected cells; host or cells: rat striatum (female Wistar rats), transduced in vivo with the AAV vector rAAV_3flag-hP2X7R
T1 sequence (Q99572 1-595): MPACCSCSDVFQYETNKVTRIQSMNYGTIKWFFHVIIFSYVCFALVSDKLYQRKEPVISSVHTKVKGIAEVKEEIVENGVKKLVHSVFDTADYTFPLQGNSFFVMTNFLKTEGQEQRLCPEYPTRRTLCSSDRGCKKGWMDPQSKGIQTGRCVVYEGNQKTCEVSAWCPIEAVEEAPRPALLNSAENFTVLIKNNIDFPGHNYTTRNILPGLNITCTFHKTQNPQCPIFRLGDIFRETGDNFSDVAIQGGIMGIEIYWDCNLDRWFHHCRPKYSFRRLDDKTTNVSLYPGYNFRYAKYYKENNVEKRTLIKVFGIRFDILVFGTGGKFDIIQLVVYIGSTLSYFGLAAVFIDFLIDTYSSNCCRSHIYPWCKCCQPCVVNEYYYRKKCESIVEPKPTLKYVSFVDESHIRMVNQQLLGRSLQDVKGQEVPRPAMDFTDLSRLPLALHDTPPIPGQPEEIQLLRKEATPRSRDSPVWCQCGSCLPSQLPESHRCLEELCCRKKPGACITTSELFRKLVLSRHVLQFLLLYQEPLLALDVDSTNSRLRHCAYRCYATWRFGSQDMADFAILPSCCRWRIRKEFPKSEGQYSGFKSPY
In words: PET imaging in rats locally overexpressing hP2X7R in right striatum. Type of assay: in vivo, rat. Conditions: 30 mg·kg^−1 s.c., 45 min prior to tracer injection. As to the method:
Uptake of [^11C]SMW139 was 1.5-fold higher in the right striatum compared with the contralateral striatum at 4–15 min p.i. (n = 3; Fig. 6A,B, and Supplementary Figure S5, 5 weeks after vector injection). […] (2.85 ± 0.69 vs. 2.30 ± 0.36 in contralateral striatum) throughout the remainder of the scanning time.
Female rats were injected with the hP2X7R expressing vector in the right striatum, and eGFP expressing vector in the left striatum, which is described in detail in the Supplementary Information. […] To confirm stable expression of hP2X7R during the time period in which PET scanning studies were conducted, autoradiography experiments were performed both prior to and following PET experiments. In a dedicated small animal PET scanner (nanoPET, Mediso Ltd.), 60 min dynamic PET scans were acquired immediately after intravenous administration of 16–20 MBq of [^11C]SMW139. […] 45 min prior to tracer injection. After data reconstruction (details in Supplementary Information), images were analysed using the freely available AMIDE software (version 0.9.2; http://amide.sourceforge.net). ROIs were drawn around ipsi- and contralateral striata. Results are expressed as standardised uptake values (SUVs) and error bars indicate standard deviation.
Stereotactic injection of viral vector […]
to a 10 µL Hamilton syringe. […]
dorsoventral -0.64 cm relative to bregma. […]
minutes before removing it slowly.
Rats were sacrificed for in
Dynamic PET imaging was performed using dedicated small animal NanoPET/CT and NanoPET/MR scanners (Mediso Ltd., Budapest, Hungary) which are equipped with identical PET components. […]
anaesthetised with 4% and 2% isoflurane in oxygen (1 L·min-1) for induction and maintenance, respectively. Rats were positioned on the scanner bed and their respiratory rate was monitored during the entire scan, and anaesthesia was adjusted whenever required. Dynamic PET scans were acquired immediately after intravenous (i.v.) administration of 16-20 MBq of [11C]SMW139 via the tail vein. For […]
hydroxypropyl)-β-cyclodextrin in water for injection 45 min prior to tracer injection. PET scans were acquired in list mode and rebinned into the following frame sequence: 4 × 5, 4 x 10, 2 x 30, 3x 60, 2 x 300, 1 x 600, 1 x 900 and 1 x 1200 s. Reconstruction was performed using a fully 3-dimensional reconstruction algorithm (Tera-TomoTM, Mediso Ltd.) with 4 iterations and 6 subsets, and an isotropic 0.4 mm voxel dimension. Images were analysed using the freely available AMIDE software (version 0.9.2; http://amide.sourceforge.net). 3D ellipsoid ROIs (dimensions x = 3.4 mm, y = 3.6 mm, z = 2.9 […]
mm) were drawn within ipsi- and contralateral striata. Results are expressed as standardised uptake values (SUVs) and error bars indicate standard deviation. SUV were calculated as follows, with cimg in MBq/mL, injected dose in MBq and bodyweight in kg:
An unpaired two-tailed t-test was used for statistical analysis of PET data, which was performed using […]
allowed to recover for 1 week after scanning. After 1 week of recovery following the final scan (12 weeks after stereotactic vector injection) animals were sacrificed, and brains were excised and stored […]
Extended single microdose toxicity study
A single microdose toxicity study according to EMEA guideline EMA/CPMP/ICH/286/1995 (December 2009) was performed in healthy Wistar rats at a 1000 times higher dose than the maximal dose […]
minimum specific activity of 18.5 GBq·µmol-1). Animals were allowed to acclimatise for 10 days, group-housed and in an enriched environment with food and water available ad libitum, and with a 12-hour light-dark cycle in a temperature controlled room.

Assay [2] has as its target T2, P2X7R (Homo sapiens, UniProt Q99572).
T2 construct: Snap frozen human post-mortem; tissue The Netherlands Brain Bank; host or cells: post mortem human temporal cortex (AD patients and non-neurological controls)
T2 sequence (Q99572 1-595): T1 sequence (Q99572 1-595)
In words: In vitro autoradiography on post mortem human brain tissue (AD patients and controls). In kind it is binding. Particulars: blocker 10 µM, AD patients and controls.

Assay [3] addresses human P2X7R. Details: method as in PMID 28841278. Conditions: cited from earlier work.

“Also recorded” adds a separate entry of the source.

As to `O=C(NCC1(N2CCN(c3ccccc3)CC2)CCOCC1)c1cccnc1Sc1ccccc1` [JNJ-47965567, reference compound], the “Effect of pre-treatment on [^11C]SMW139 uptake/binding in rAAV_3flag-hP2X7R striatum” value in assay [1] was “down to baseline levels; also recorded: significantly decreased”. For the same compound, the “Blocking of [^11C]SMW139 binding in post mortem human brain tissue” value in assay [2] is listed as “fully blocked; also recorded: virtually complete blocking”.
As a reminder, the Ki is the dissociation constant of the complex between target and ligand, obtained from inhibition or displacement. With `COc1ccc(Cl)c(C(=O)NCC23CC4CC(CC(C4)C2)C3)c1` [compound 1], the Ki in assay [3] is 0.009 µM.
`COc1ccc(Cl)c(C(=O)NCC23CC4CC(CC(F)(C4)C2)C3)c1` [compound 2]: the inhibitory constant (Ki) in assay [3] is 0.022 µM.
As for `COc1ccc(Cl)c(C(=O)NCC23CC4CC(F)(CC(F)(C4)C2)C3)c1` [compound 3], in assay [3], the Ki was 0.023 µM.

(Values after paper PMC5920098, “Identification of the allosteric P2X7 receptor antagonist [^11C]SMW139 as a PET tracer of microglial activation” (Scientific Reports, 2018).)
